Reference: patent US12590134B2, “GLP-1 agonist polypeptide compound and salt thereof, synthesis method therefor and use thereof” (Sinopep-Allsino Biopharmaceutical Co., Ltd., priority 2020, dated 2026)
Read-outs that look alike come from different tables or passages of the source.

Experiments:
[1] = biological target: human GLP-1R (Homo sapiens, UniProt P43220); experiment: cAMP signal analysis of GLP-1R (GLP-1 receptor agonist activity); assay type: cell-based
Experimental: A wild human GLP-1R (NM_002062.5) was subjected to transient transfection and screened for two weeks by 600 μg/ml of hygromycin-B to obtain a cell line which was recombined and integrated into an FlpInCHO (Invitrogen) cell stable expression system. The culture condition of the FlpInCHO cell was as follows: 10% of heat-inactivated fetal calf serum was added to a DMEM culture solution, and the culture was performed in a 5% carbon dioxide cell incubator.
In the test, an LANCE cAMP detection kit was used for measuring the cAMP signal intensity.

[2] = Pharmacokinetic comparison experiment in rats, single subcutaneous injection; details: rat, in vivo, sc, 0.02 mg/kg
Experimental: A single subcutaneous injection was performed with a dose of 0.02 mg/kg; blood collection was performed by tail clipping, and the blood collection time points were: 0 h, 15 min, 30 min, 1 h, 2 h, 3 h, 4 h, 6 h, 8 h, 24 h, 48 h and 72 h. The compound concentration in plasma was determined by LC-MS/MS, all data were collected and exported by Unifi 1.9.3 software, and Excel software was used for data calculation. A non-compartmental model of DAS 3.0 software was used to calculate the pharmacokinetic parameters of rats after administration.

[3] = Effect on random body weight of db/db mice after single subcutaneous injection; assay type: in vivo; set-up: unit not given here
Experimental: (§1) After DB/DB mice with high blood glucose were acclimated for 5-7 days, a non-fasting random blood glucose level was determined; after fasting for 12 h, a fasting blood glucose level was determined by a rapid blood glucose meter. […] Mice in each test drug group and each control group received single subcutaneous injection of each test drug or a control solution respectively, and the mice in the model control group received single subcutaneous injection of PBS buffer solution; and the experiment grouping and dosage setting conditions were shown in Table 1:
Body weight: after grouping the animals, the body weight was measured once a day at a fixed time period
(§2) T test was used for comparison between two groups. One-way ANOVA was used for comparison among three or more groups. If there was a significant difference in F value, multiple comparisons should be performed after ANOVA analysis. All data analyses were performed with SPSS 17.0. If p<0.05, it was considered a significant difference.

[4] = tested on: db/db mice; experiment: Glucose lowering experiment, random blood glucose of db/db mice after single subcutaneous injection; assay type: in vivo
Experimental: as §1
Blood glucose level: the blood was taken from the tail tip of the mice to measure the blood glucose level with a fast blood glucose meter and blood glucose test strips. […]
The glucose lowering effect of the test article was evaluated by BG (mmol/L) or AUC (mmol/L·min).
as §2

Chain of human GLP-1R (P43220 24-463): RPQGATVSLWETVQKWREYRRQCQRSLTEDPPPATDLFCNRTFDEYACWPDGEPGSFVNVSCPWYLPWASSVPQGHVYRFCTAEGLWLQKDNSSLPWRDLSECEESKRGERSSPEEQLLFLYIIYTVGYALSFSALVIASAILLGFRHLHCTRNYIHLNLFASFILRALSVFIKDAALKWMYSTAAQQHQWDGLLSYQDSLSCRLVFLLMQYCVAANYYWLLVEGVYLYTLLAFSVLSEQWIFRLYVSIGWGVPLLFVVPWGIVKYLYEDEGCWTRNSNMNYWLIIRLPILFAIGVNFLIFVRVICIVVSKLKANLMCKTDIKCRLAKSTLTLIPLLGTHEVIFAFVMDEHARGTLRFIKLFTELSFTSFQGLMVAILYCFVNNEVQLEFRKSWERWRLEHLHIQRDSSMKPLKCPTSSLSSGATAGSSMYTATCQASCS

CC[C@H](C)[C@H](NC(=O)[C@H](Cc1ccccc1)NC(=O)[C@H](CCC(=O)O)NC(=O)[C@H](CCCCNC(=O)COCCOCCNC(=O)COCCOCCNC(=O)CC[C@H](NC(=O)CCCCCCCCCCCCCCCCC(=O)O)C(=O)O)NC(=O)[C@H](C)NC(=O)[C@H](C)NC(=O)[C@H](CCC(N)=O)NC(=O)[C@](C)(CC)NC(=O)[C@H](CCC(=O)O)NC(=O)[C@H](CC(C)C)NC(=O)[C@H](Cc1ccc(O)cc1)NC(=O)[C@H](CO)NC(=O)[C@H](CO)NC(=O)[C@@H](NC(=O)[C@H](CC(=O)O)NC(=O)[C@H](CO)NC(=O)[C@@H](NC(=O)[C@H](Cc1ccccc1)NC(=O)[C@@H](NC(=O)CNC(=O)[C@H](CCC(=O)O)NC(=O)[C@](C)(CC)NC(=O)[C@@H](N)Cc1c[nH]cn1)[C@@H](C)O)[C@@H](C)O)C(C)C)C(=O)N[C@@H](C)C(=O)N[C@@H](Cc1c[nH]c2ccccc12)C(=O)N[C@@H](CC(C)C)C(=O)N[C@H](C(=O)N[C@@H](CCCNC(=N)N)C(=O)NCC(=O)N[C@@H](CCCNC(=N)N)C(=O)NCC(=O)O)C(C)C [NO: 3]
EC50 ([1]; CHO cell line stably expressing human GLP-1R, downstream cAMP signal, LANCE cAMP kit, read-out: GLP-1R EC50): 2840 ± 513 pM | CL/F ([2]; male): 0.133 mL/min/kg | half-life ([2]; male): 15.4 h | AUC(0-inf) [2]: 2810 ng·h/mL | AUC(0-t) [2]: 2630 ng·h/mL | AUMC(0-t), Mean [2]: 73156.82 h * h * μg/L | AUMC(0-∞), Mean [2]: 89827.62 h * h * μg/L | Cmax [2]: 66.8 ng/mL | R_AUC(t/∞), Mean [2]: 93.53% | Tmax [2]: 24 h | Vd/F [2]: 0.17 L/kg

CC[C@H](C)[C@H](NC(=O)[C@H](Cc1ccccc1)NC(=O)[C@H](CCC(=O)O)NC(=O)[C@H](CCCCNC(=O)COCCOCCNC(=O)COCCOCCNC(=O)CC[C@H](NC(=O)CCCCCCCCCCCCCCCCC(=O)O)C(=O)O)NC(=O)[C@H](C)NC(=O)[C@H](C)NC(=O)[C@H](CCC(N)=O)NC(=O)[C@](C)(NC(=O)[C@H](CCC(=O)O)NC(=O)[C@H](CC(C)C)NC(=O)[C@H](Cc1ccc(O)cc1)NC(=O)[C@H](CO)NC(=O)[C@H](CO)NC(=O)[C@@H](NC(=O)[C@H](CC(=O)O)NC(=O)[C@H](CO)NC(=O)[C@@H](NC(=O)[C@H](Cc1ccccc1)NC(=O)[C@@H](NC(=O)CNC(=O)[C@H](CCC(=O)O)NC(=O)[C@](C)(NC(=O)[C@@H](N)Cc1c[nH]cn1)C(F)(F)C(F)(F)F)[C@@H](C)O)[C@@H](C)O)C(C)C)C(F)(F)C(F)(F)F)C(=O)N[C@@H](C)C(=O)N[C@@H](Cc1c[nH]c2ccccc12)C(=O)N[C@@H](CC(C)C)C(=O)N[C@H](C(=O)N[C@@H](CCCNC(=N)N)C(=O)NCC(=O)N[C@@H](CCCNC(=N)N)C(=O)NCC(=O)O)C(C)C [NO: 21]
EC50 [1]: 652 ± 41.7 pM

CC[C@H](C)[C@H](NC(=O)[C@H](Cc1ccccc1)NC(=O)[C@H](CCC(=O)O)NC(=O)[C@H](CCCCNC(=O)COCCOCCNC(=O)COCCOCCNC(=O)CC[C@H](NC(=O)CCCCCCCCCCCCCCCCC(=O)O)C(=O)O)NC(=O)[C@H](C)NC(=O)[C@H](C)NC(=O)[C@H](CCC(N)=O)NC(=O)CNC(=O)[C@H](CCC(=O)O)NC(=O)[C@H](CC(C)C)NC(=O)[C@H](Cc1ccc(O)cc1)NC(=O)[C@H](CO)NC(=O)[C@H](CO)NC(=O)[C@@H](NC(=O)[C@H](CC(=O)O)NC(=O)[C@H](CO)NC(=O)[C@@H](NC(=O)[C@H](Cc1ccccc1)NC(=O)[C@@H](NC(=O)CNC(=O)[C@H](CCC(=O)O)NC(=O)[C@](C)(NC(=O)[C@@H](N)Cc1c[nH]cn1)C(F)(F)C(F)(F)F)[C@@H](C)O)[C@@H](C)O)C(C)C)C(=O)N[C@@H](C)C(=O)N[C@@H](Cc1c[nH]c2ccccc12)C(=O)N[C@@H](CC(C)C)C(=O)N[C@H](C(=O)N[C@@H](CCCNC(=N)N)C(=O)NCC(=O)N[C@@H](CCCNC(=N)N)C(=O)NCC(=O)O)C(C)C [NO: 22]
EC50 [1]: 630 ± 51.9 pM

Semaglutide
Random body weight at different time after administration, Day 0 ([3]; 30 nmol/kg SC single dose, Day 0): 41.62 ± 1.56 | Random body weight at different time after administration, Day 1 ([3]; 30 nmol/kg SC single dose, Day 1): 38.86 ± 1.37 | Random body weight at different time after administration, Day 2 ([3]; 30 nmol/kg SC single dose, Day 2): 40.56 ± 1.51 | Random body weight at different time after administration, Day 3 ([3]; 30 nmol/kg SC single dose, Day 3): 41.03 ± 1.72 | Random body weight at different time after administration, Day −1 ([3]; 30 nmol/kg group, Day −1 (before administration)): 40.24 ± 1.44 | Random body weight at different time after administration, Day −2 ([3]; 30 nmol/kg group, Day −2 (before administration), X ± s, n = 8): 41.37 ± 1.64 | Random blood glucose ([4]; 30 nmol/kg SC group, baseline at grouping before administration, X ± s, n = 8): 25.8 ± 3.9 mmol/L | Blood glucose at different time after administration, 0 h ([4]; 30 nmol/kg SC single dose, 0 h): 26.8 ± 3.2 mmol/L | Blood glucose at different time after administration, 2 h ([4]; 30 nmol/kg SC single dose, 2 h): 14.9 ± 4.1 mmol/L | Blood glucose at different time after administration, 4 h ([4]; 30 nmol/kg SC single dose, 4 h): 13.2 ± 3.2 mmol/L | Blood glucose at different time after administration, 6 h ([4]; 30 nmol/kg SC single dose, 6 h): 13.3 ± 3.7 mmol/L | Blood glucose at different time after administration, 10 h ([4]; 30 nmol/kg SC single dose, 10 h): 11.5 ± 3.7 mmol/L | Blood glucose at different time after administration, 24 h ([4]; 30 nmol/kg SC single dose, 24 h): 12.6 ± 5.6 mmol/L | Blood glucose at different time after administration, 36 h ([4]; 30 nmol/kg SC single dose, 36 h): 21.1 ± 4.1 mmol/L | Blood glucose at different time after administration, 48 h ([4]; 30 nmol/kg SC single dose, 48 h): 21.3 ± 5.6 mmol/L | Blood glucose at different time after administration, 56 h ([4]; 30 nmol/kg SC single dose, 56 h): 28.3 ± 4.8 mmol/L | Blood glucose at different time after administration, 72 h ([4]; 30 nmol/kg SC single dose, 72 h): 32.3 ± 1.9 mmol/L
